Measured values taken from PubChem BioAssay (NCI).
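Results reflect a 48-hour exposure of cells in 96-well plates to compound at five concentrations. GI50 = concentration required for 50% inhibition of growth. TGI is the concentration that stops growth completely.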

Columns and labels:
Assay in all cases: inhibition of tumour cell growth, NCI panel, 48 h
[1] = tested on: A498 renal
[2] = tested on: EKVX NSCLC
[3] = tested on: HL-60(TB) leukemia
[4] = tested on: MDA-MB-435
[5] = tested on: NCI-H460 lung
[6] = tested on: PC-3 prostate
[7] = tested on: SF-295 CNS
[8] = tested on: SK-OV-3 ovarian
[9] = tested on: SNB-19 CNS
[10] = tested on: NCI-H522 lung

SMILES	GI50 [1] [µM]	TGI [1] [µM]	GI50 [2] [µM]	TGI [2] [µM]	GI50 [3] [µM]	TGI [3] [µM]	GI50 [4] [µM]	TGI [4] [µM]	GI50 [5] [µM]	TGI [5] [µM]	GI50 [6] [µM]	TGI [6] [µM]	GI50 [7] [µM]	TGI [7] [µM]	GI50 [8] [µM]	TGI [8] [µM]	GI50 [9] [µM]	TGI [9] [µM]	GI50 [10] [µM]	TGI [10] [µM]
Cc1cc(O[C@@H]2O[C@@H](C)[C@H](O)[C@@H](O)[C@H]2O)c2c3c(c(O[C@@H]4O[C@@H](C)[C@H](O)[C@@H](O)[C@H]4O)cc2c1)C(=O)c1c(O)cccc1C3=O	> 30	> 30	> 30	> 30	> 30	> 30	> 30	> 30	> 30	> 30	> 30	> 30	> 30	> 30	> 30	> 30	> 30	> 30		
COC1=CC(c2ccc[nH]2)=N/C1=C\c1[nH]c(C)c(C(=O)Oc2ccccc2)c1C	0.648	2.56	0.164	2.97					0.077	1.4	0.117	> 100	0.329	1.95	1.68	7.35	1.29	> 100	0.227	0.979
CN(C)CCCOc1ccc(/C=C2/CCC/C(=C/c3ccc(OCCCN(C)C)cc3)C2=O)cc1		3.65		6.84		3.65				4.16				3.65		4.18		4.74		3.75
CCC1=C[C@@H]2CN(C1)Cc1c([nH]c3ccccc13)[C@@](C(=O)OC)(c1cc3c(cc1OC)N(C)[C@H]1[C@@](O)(C(=O)OC)[C@H](OC(C)=O)[C@]4(CC)C=CCN5CC[C@]31[C@@H]54)C2	< 0.01	0.141	< 0.01	18.8	< 0.01	< 0.01			< 0.01	0.444	< 0.01	21.8	< 0.01		< 0.01	2.02	< 0.01	18.9	< 0.0227	> 31.8
O=C1C(Cl)=C(Cl)C(=O)N1c1ccccc1Cl		> 100		> 100		21.7				> 100				> 100		> 100		> 100		22.7
N#CC(C(=O)/C(=N/NC(=O)c1ccccc1O)C(C#N)c1ccc(Br)cc1)c1ccc(Br)cc1 (stereo not drawn)		26.8		30						40				28.6		> 100		24.3		27.7
N#CCCN(C1=NN(C(=O)CC(=O)Nc2ccc(Cl)cc2)C(c2ccccc2)C1)c1ccc(Cl)cc1 (stereo not drawn)		> 100		> 100		> 100				> 100				> 100				> 100		> 100
CC[O-].CC[O-].COc1ccc(C(=O)[CH-]C(C)=O)cc1OC.COc1ccc(C(=O)[CH-]C(C)=O)cc1OC.[Ti+4]	29.6	75.2	24.6	79.6	43.3	> 100			55.8	> 100			33.9	> 100			73	> 100		
